Results: patent publication US20150314021A1, “STERILIZATION METHOD COMPRISING STERILIZATION FLUID AND ULTRASONICALLY GERERATED CAVITATION MICROBUBBLES” (DEVIS TECHNOLOGIES INC., priority 2012, published 2015)
Like-named read-outs stand apart in the source and are kept apart here.

Experiments:
[1] = system: Bacillus atrophaeus and Bacillus stearothermophilus; assay: Reduction in viable cell count after 5 min exposure to sterilant and/or ultrasound; format: cell-based
Procedure: Comparative testing with exposure for 5 min to ultrasound at 250 kHz, 500 kHz and 1 MHz and using ultrasound and sterilant in separation as well as in combination was conducted and the reduction in viable cell count was determined using standard methodology.

[2] = system: Bacillus atrophaeus and Bacillus stearothermophilus; assay: Growth of surviving bacteria colonies after exposure; format: cell-based; conditions: 500 kHz test; observed at 24, 48 and 96 hours (FIGS. 8 and 9)
Text: In the parallel tests with hydrogen peroxide and ultrasound, the effect was much less significant (see FIG. 10) than with the test series using ultrasound and ozone. The effect seems to be more evident with ozone than with hydrogen peroxide. […] At the very least their reproductive system appears to have been severely compromised.

[3] = 500 kHz test series, cells suspended in distilled water, ozone 3.7 ppm, hydrogen peroxide 1.5% w/w, glutaraldehyde 0.2%, control normalized 100%

Compound | Percentage reduction in number of viable cells upon a 5 minute exposure [1, 3] [%] | growth of surviving bacteria colonies after exposure [2] | Percentage reduction in number of viable cells upon a 5 minute exposure ([1]; 1 MHz test series, cells suspended in distilled water, ozone 3.7 ppm, hydrogen peroxide 1.5% w/w, control normalized 100%) [%] | inhibition at 1.5 % strength ([1]; 1 MHz test series, cells suspended in distilled water, ozone 3.7 ppm, hydrogen peroxide 1.5% w/w, control normalized 100%, read-out: Percentage reduction in number of viable cells upon a 5 minute exposure) [%] | inhibition at 1.5 % strength ([1]; read-out: Percentage reduction in number of viable cells upon a 5 minute exposure, 500 kHz test series, cells suspended in distilled water, ozone 3.7 ppm, hydrogen peroxide 1.5% w/w, glutaraldehyde 0.2%, control normalized 100%) [%]
O=CCCCC=O [Glutaraldehyde, glutaraldehdye] | 86 | – | – | – | –
O=[O+][O-] [Ozone] | 81 | bacteria colonies were visible after 24 hours | 71 | – | –
OO [Hydrogen Peroxide, hydrogen peroxide] | – | – | – | 68 | 59
